Source: PMC5380659, “Unique charge-dependent constraint on collagen recognition by integrin α10β1” (Matrix Biology, 2017)
“Also recorded” adds a separate entry of the source.

Columns and labels:
[1] = system: collagen-binding integrins; set-up: method as in 3 sources, ref [7], [8] = [7]; PMID 10778855; doi:10.1016/S0092-8674(00)80622-4; 7 Emsley J. Knight C.G. Farndale R.W. Barnes M.J. Liddington R.C. Structural basis of collagen recognition by integrin alpha2beta1 Cell 101 1 2000 47 56 10778855 10.1016/S0092-8674(00)80622-4 || [8]; PMID 16326707; doi:10.1074/jbc.M509818200; 8 Raynal N. Hamaia S.W. Siljander P.R. Maddox B. Peachey A.R. Fernandez R. Foley L.J. Slatter D.A. Jarvis G.E. Farndale R.W. Use of synthetic peptides to locate novel integrin alpha2beta1-binding moti ||| ref [8], [10] = [8]; PMID 16326707; doi:10.1074/jbc.M509818200; 8 Raynal N. Hamaia S.W. Siljander P.R. Maddox B. Peachey A.R. Fernandez R. Foley L.J. Slatter D.A. Jarvis G.E. Farndale R.W. Use of synthetic peptides to locate novel integrin alpha2beta1-binding moti || [10]; PMID 16043429; doi:10.1074/jbc.M502431200; 10 Kim J.K. Xu Y. Xu X. Keene D.R. Gurusiddappa S. Liang X. Wary K.K. Hook M. A novel binding site in collagen type III for the integrins, alpha 1beta 1 and alpha 2beta 1 J. Biol. Chem. 280 2005 32512 ||| ref [11] = [11]; PMID 10986291; doi:10.1074/jbc.M007668200; 11 Xu Y. Gurusiddappa S. Rich R.L. Owens R.T. Keene D.R. Mayne R. Hook A. Hook M. Multiple binding sites in collagen type I for the integrins α1β1 and α2β1 J. Biol. Chem. 275 2000 38981 38989 10986291; settings: cited from earlier work
Description: Many related motifs have now been identified using the Collagen Toolkits developed in this laboratory for the purpose. These are libraries of overlapping peptides of 27 amino acids of collagen primary sequence (guest sequence), flanked ...

[2] = system: human recombinant GST-α10 I domain; experiment: Solid-phase binding assay (SPBA) of wild-type α10 I domain; settings: short THPs, 2 mM Mg^2 +, 1 h, Fig. 4A
Protocol: The α10 I domain was applied to the collagen II and III Toolkits in the presence or absence of Mg^2 +, and was detected using anti-GST, as described in Experimental: data are shown in Fig. 1. The background response is indicated by wells coated with the control peptide, GPP10 (corresponding to the host sequence), or BSA.
(§1) I domain adhesion was determined colorimetrically, as described, here termed solid phase binding assay (SPBA). Peptides were coated at 10 μg/ml for 1 h at 22 °C on Immulon-2 HB 96-well plates (Thermo Life Sciences, Basingstoke, UK), and blocked for 1 h with 200 μl of TBS containing 50 mg/ml bovine serum albumin. Wells were washed four times with 200 μl of the adhesion buffer (TBS with 1 mg/ml bovine serum albumin) before adding 100 μl of adhesion buffer containing 10 μg/ml of recombinant GST I domains in the presence of either 2 mM MgCl2 or EDTA for 1 h at room temperature. Wells were washed five times with 200 μl of adhesion buffer containing MgCl2 or EDTA, before adding 100 μl of adhesion buffer containing the anti-GST-HRP conjugate at 1:10,000 dilution for 1 h at room temperature. After washing, colour was developed using an ImmunoPure TMB Substrate Kit (Pierce) according to the manufacturer's instructions.

α10β1 = experiment: Overall recognition by α10β1 (I domain and C2C12-α10β1 cells, summary); settings: abstract and discussion; I domain and/or C2C12-α10β1 cells
Protocol: as §1
The mouse myoblast cell line, C2C12, (control and transfectants, C2C12-α1β1, C2C12-α2β1, C2C12-α10β1 or C2C12-α11β1) was maintained in RPMI medium containing 10% fetal bovine serum, 2 mM glutamine, 100 IU/ml penicillin, 100 μg/ml streptomycin, and 2.5 μg/ml amphotericin. Cells were harvested by centrifugation, washed, and suspended at 0.5 × 10^6/ml in Tris-buffered saline supplemented with 5.5 mM glucose and either 2 mM EDTA or 2 mM MgCl2. SPBA was performed as follows: 100 μl of the cell suspension was added to peptide-coated wells [42] at 20 °C for 60 min. Cell adhesion was determined colorimetrically after lysis, using a lactate dehydrogenase (LDH)-based cell detection kit (Roche Diagnostics) according to the supplier's instructions.
(§2) To quantitate C2C12-α10β1 binding to collagen peptides, we used the impedance-based xCELLigence system (Acea) that allows label-free, dynamic monitoring of cell adhesion in real-time. The assay system expresses the adhesion-dependent rise in well impedance in units of cell index (CI), defined as (Rn − Rb) / 15; where Rn is the electrical impedance of each cell-containing well and Rb is the background impedance of the well with medium alone

[3] = system: Other I domains that lack such a positive residue; experiment: SPBA of I domains that lack the positive residue (wild type); type: binding, human; settings: I domains lacking a positive residue at position 215
Protocol: Fig. 8 Arginine substitution of I domain surface reduces binding to Toolkit peptide III-4. Wild type I domain from α1, α2 and α10 were allowed to adhere to Toolkit peptide III-4 that contains GROGER, as described in Fig. 1, and binding is shown in A, B and C, respectively. In D and E, the natural glutamine residues of α1, Q214, and of α2, Q215, was replaced with arginine. In F, the natural arginine, R215, of α10 was replaced with glutamine.
as §1

C2C12-α10β1 cells = experiment: xCELLigence real-time adhesion of C2C12-α10β1 cells; type: cell-based, mouse; settings: up to 1 h, compared with GPP10 negative control, Fig. 6C
Protocol: Fig. 3 Binding of α10β1-transfected C2C12 cells to collagens and selected Toolkit peptides. Peptides or collagens were coated on ePlates as described, then cells were added in the presence of 2 mM Mg^2 + or EDTA, and Cell Index value was collected over 1 h. […] B: time courses are shown of adhesion to selected Toolkit peptides or GPP-10.
as §2
Briefly, C2C12 cells were seeded at 2.5 × 10^4 cells/well in an E-plate (Roche Applied Science) pre-coated with peptides as for SPBA, and CI was measured for up to 2 h.

Row | Substance | Ligand of collagen-binding integrins, highest affinity motif ([1]; in collagens I and II, ref [7], [8]) | Binding of α10 I domain to short triple-helical peptides [2] | Recognition by α10β1, summary (α10β1) | Binding by other I domains [3] | Ligand of collagen-binding integrins, GROGER ([1]; ref [8], [10]) | Cell adhesion to short THPs (time course) (C2C12-α10β1 cells)
1 | GFOGER [THP containing GFOGER served as positive control, reference compound] | highest affinity ligand | less well |  |  |  | 
2 | GLOGEN [short THP containing GLOGEN] |  | bound strongly | selective ligand in preference to GFOGER; also recorded: high-affinity site |  |  | 
3 | GROGER [short triple-helical peptide containing GROGER] |  |  | only weakly recognised by α10β1; also recorded: compromised in the context of α10β1; also recorded: α10-repellent | bind GROGER well | quite a good ligand | poor binding; also recorded: of comparable level to the GPP10 negative control peptide
